Data: patent US12297206B2, “Method for synthesizing furoimidazopyridine compound, polymorphic substance and polymorphic substance of salt” (HANGZHOU HIGHLIGHTLL PHARMACEUTICAL CO., LTD, priority 2019, dated 2025)
pIC50: −log10 of the molar value. Values after ≈ are worked out from the molar mass of the structure shown. Where two headings read alike, the source gives them in different places. One block for each molecule: values may come before it.

How the values were obtained:
[1] = Dynamic vapour sorption (DVS) moisture absorption; format: physicochemical
[2] = Stability test 1: short-term solid state stability (high temperature and accelerated conditions); format: physicochemical
Protocol: For the open samples, the bottle cap was removed and the bottle neck was coverred with an aluminium-foil paper stabbed with pinholes to avoid cross contamination; for the closed samples, the bottled were coverred and sealed tightly. Samples were taken at weeks 1 and 2, respectively, the samples were diluted with a diluent (methanol/water (1/1) (v/v)), the liquid phase was injected according to the chromatographic conditions in Table 22 and the sample purities were determined.
The sample purities were calculated with an area normalization method.

[3] = as above; format: physicochemical; details: for Stability study: crystal form: 2 weeks (XRPD, DSC); for Appearance in solid state stability test: within 2 weeks, 60° C. and 40° C./75% RH
[4] = room temperature and 50° C., days 3, 7 and 14
Protocol: The sample bottles (wrapped with a tin foil paper to protect from light) in a room temperature system were placed on Labquaker rotator for rotating 360°; the samples in a high temperature system were placed in a 50° C. thermostatic shaking incubator and were slurried, part of the suspension samples were taken on days 3, 7 and 14, respectively and were centrifuged, solid residue was collected, the solvents were volatilized at room temperature (20-25° C.) to dryness, the solid was collected.

[5] = good solvents tetrahydrofuran, ethanol, isopropanol, methanol, acetone
Excerpt: If no solid was precipitated, the system was stirred with the bottle opened until solid was precipitated.

[6] = dissolved at about 50° C., transferred to −20° C.
Protocol: The temperature was maintained for 15 minutes, the solution was filterred with a 0.45 μm membrane when hot and was transferred to new sample bottles, the bottled were immediately transferred to a −20° C. refrigerator overnight, the solvent systems wherein solid was precipitated were centrifuged and the solid was collected, the solvent was volatilized at room temperature (20-25° C.) to dryness; the solvent systems wherein no solid was precipitated were placed to a −20° C. refrigerator until a large amount of solids precipitated.

[7] = dissolved at about 50° C., slowly cooled at 6° C./h
Protocol: The temperature was maintained for 15 minutes, the solution was filterred with a 0.45 μm membrane when hot and transferred to new sample bottles, slowly cooled to room temperature at 6° C./h overnight, the sample bottles were placed in a refrigerator (2-8° C.), the solvent systems wherein solid precipitated were centrifuged and the solid was collected, the solvent was volatilized at room temperature (20-25° C.) to dryness; the solvent systems wherein no solid precipitated were placed in a −20° C. refrigerator until a large amount of solids precipitated.

[8] = evaporated at room temperature
physchem = details: 37 °C, thermodynamic from solid
Protocol: The samples were observed 5 minutes later, a quantity of sample or medium was supplemented to obtain mild suspension, and sampling was conduct at 30 minutes, 2 hour, 4 hours and 24 hours, respectively. The samples were centrifuged for 10 minutes at 12000 rpm to obtain the supernatant, the supernatant was diluted appropriately and was subjected to high performance liquid chromatography.
The sample concentration was calculated with an external standard method.

TYK2 = target: T1, TYK2 (Homo sapiens, UniProt P29597); test: TYK2 biochemical test (33P-ATP filter binding kinase assay, Reaction Biology Corp); details: kinase reaction 2 hours at room temperature
T1 construct: purchased Reaction Biology Corp, Malvern, PA (contract assay service)
Protocol: A suitable amount of a compound of formula I was weighed for TYK2 biochemical test.
The test was conducted by Reaction Biology Corp, Malvern, PA (Anastassiadis et al. Nat Biotechnol. 2011; 29(11):1039-45). The steps are briefly described as follows.
Basic reaction buffer: 20 mM Hepes (pH 7.5), 10 mM MgCl2, 1 mM EGTA, 0.02% Brij35, 0.02 mg/ml BSA, 0.1 mM Na3VO4, 2 mM DTT and 1% DMSO. The required cofactors were added to each kinase reaction.
1. Preparing the designated substrate in the newly prepared basic reaction buffer;
2. Transferring the required cofactor to the above matrix solution;
3. Transferring the designated kinase to the substrate solution and mixing well slightly;
4. Transferring a compound of formula I in DMSO to a kinase reaction mixture with Acoustic technique (Echo550; nanoliter range), culturing for 20 minutes at room temperature;
5. Introducing ^33P-ATP (specific activity: 10 μCi/μl) to the reaction mixture to trigger a reaction;
6. Culturing at room temperature and conducting a kinase reaction for 2 hours;
7. Plotting the reaction on P81 ion exchange paper;
8. Testing the kinase activity with a filter binding assay.

JAK1 = JAK1 (Homo sapiens, UniProt P23458); details: as reported for WO2018067422A1; cited from earlier work
[9] = test system: IL-6-induced STAT3 phosphorylation; details: as reported for WO2018067422A1; cited from earlier work
[10] = test system: thrombopoietin-induced STAT3 phosphorylation; details: as reported for WO2018067422A1; cited from earlier work
[11] = fasted-state simulated intestinal fluid (FaSSIF), fassif
[12] = fed-state simulated intestinal fluid (FeSSIF), fessif
[13] = simulated gastric fluid (SGF), simulated gastric fluid

Sequence of JAK1 (P23458 whole entry, species assumed): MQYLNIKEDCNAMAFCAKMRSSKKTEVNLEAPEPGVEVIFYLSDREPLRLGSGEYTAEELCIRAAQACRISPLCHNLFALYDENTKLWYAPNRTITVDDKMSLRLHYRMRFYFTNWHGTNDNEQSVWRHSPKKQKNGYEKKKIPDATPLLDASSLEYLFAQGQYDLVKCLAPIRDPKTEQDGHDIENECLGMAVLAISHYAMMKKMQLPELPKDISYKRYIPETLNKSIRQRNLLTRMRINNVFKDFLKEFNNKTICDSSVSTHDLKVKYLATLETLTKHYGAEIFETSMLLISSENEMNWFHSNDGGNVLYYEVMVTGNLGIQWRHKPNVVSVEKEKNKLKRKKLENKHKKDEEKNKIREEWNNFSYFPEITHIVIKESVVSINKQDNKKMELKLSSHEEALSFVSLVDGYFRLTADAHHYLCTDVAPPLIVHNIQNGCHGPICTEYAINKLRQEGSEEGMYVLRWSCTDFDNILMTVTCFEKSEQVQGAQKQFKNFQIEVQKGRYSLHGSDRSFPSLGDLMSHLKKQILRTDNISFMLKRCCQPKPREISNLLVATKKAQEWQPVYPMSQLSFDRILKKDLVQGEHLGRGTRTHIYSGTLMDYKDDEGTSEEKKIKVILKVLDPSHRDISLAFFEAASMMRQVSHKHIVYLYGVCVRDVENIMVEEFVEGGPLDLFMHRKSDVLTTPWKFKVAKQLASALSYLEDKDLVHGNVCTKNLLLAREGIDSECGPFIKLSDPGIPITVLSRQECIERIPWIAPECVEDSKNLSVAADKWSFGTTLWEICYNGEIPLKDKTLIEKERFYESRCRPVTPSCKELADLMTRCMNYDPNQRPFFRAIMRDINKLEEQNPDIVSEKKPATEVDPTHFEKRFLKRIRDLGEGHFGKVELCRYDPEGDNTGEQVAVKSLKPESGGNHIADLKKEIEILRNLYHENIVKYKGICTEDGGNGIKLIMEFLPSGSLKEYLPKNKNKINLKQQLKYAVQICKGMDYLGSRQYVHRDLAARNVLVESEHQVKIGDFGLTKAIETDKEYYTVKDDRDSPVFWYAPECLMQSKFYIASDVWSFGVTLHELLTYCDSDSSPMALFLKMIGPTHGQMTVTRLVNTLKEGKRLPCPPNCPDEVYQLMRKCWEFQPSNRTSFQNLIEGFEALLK
T1 sequence (P29597 whole entry): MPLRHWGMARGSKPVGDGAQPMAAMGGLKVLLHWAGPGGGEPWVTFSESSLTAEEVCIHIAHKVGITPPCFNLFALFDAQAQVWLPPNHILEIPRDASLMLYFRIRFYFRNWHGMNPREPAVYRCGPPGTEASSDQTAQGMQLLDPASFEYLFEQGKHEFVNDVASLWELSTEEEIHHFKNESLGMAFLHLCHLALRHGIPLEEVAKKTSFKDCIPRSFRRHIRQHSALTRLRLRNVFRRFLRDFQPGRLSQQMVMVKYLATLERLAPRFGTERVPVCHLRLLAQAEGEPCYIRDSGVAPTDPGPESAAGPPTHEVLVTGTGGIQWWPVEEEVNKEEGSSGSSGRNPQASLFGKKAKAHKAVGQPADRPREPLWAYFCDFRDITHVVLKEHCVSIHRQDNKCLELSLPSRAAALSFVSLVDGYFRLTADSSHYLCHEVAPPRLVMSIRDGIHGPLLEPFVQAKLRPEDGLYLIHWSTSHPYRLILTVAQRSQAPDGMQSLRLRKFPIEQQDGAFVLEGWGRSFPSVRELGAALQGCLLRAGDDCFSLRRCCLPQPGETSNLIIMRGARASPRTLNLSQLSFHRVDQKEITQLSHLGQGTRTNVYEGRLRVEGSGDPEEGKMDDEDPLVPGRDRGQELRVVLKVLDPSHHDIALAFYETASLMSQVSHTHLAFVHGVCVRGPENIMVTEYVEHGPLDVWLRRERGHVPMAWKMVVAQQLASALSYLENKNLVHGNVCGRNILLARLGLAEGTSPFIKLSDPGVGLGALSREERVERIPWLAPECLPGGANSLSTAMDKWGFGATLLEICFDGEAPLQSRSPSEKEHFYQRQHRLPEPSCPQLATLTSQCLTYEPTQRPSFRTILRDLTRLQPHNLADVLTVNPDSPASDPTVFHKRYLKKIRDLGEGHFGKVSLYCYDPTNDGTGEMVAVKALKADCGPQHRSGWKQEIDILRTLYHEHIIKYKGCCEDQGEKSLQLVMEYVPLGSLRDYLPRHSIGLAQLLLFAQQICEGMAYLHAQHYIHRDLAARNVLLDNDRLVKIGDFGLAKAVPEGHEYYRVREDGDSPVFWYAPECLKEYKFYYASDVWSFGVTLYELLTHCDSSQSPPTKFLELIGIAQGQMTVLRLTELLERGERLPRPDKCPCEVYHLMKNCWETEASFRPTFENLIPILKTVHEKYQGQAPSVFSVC

Structure (SMILES): Br.Cc1nc2cnc3ccoc3c2n1C1CCC(CC#N)OC1 (stereo not shown)
Crystal form after moisture absorption (XRPD before and after the DVS test) [1]: changed
Weight gain by moisture absorption (DVS) ([1]; from 0% RH to 95% RH, 25° C.): 11.84%

Structure (SMILES): Cc1nc2cnc3ccoc3c2n1C1CCC(CC#N)OC1.O=P(O)(O)O (stereo not shown)
Stability study (purity) ([2]; 0 day): 99.34 Area %
Stability study (purity) ([2]; 40° C./75% RH, open, 1 week): 99.33 Area %
Stability study (purity) ([2]; 40° C./75% RH, open, 2 weeks): 99.35 Area %
Stability study (purity) ([2]; 60° C., sealed, 1 week): 99.32 Area %
Stability study (purity) ([2]; 60° C., sealed, 2 weeks): 99.16 Area %
Crystal form after moisture absorption (XRPD before and after the DVS test) [1]: doesn't change
Weight gain by moisture absorption (DVS) ([1]; at 70% RH): 1.95%
Weight gain by moisture absorption (DVS) ([1]; at a humidity of 85% RH): 0.72%
Weight gain by moisture absorption (DVS) ([1]; from 0% RH to 95% RH, 25° C.): 6.5%
Stability study: crystal form ([3]; 40° C./75% RH, open): Unchange
Stability study: crystal form ([3]; 60° C., sealed): Unchange
Appearance in solid state stability test [3]: didn't change

Structure (SMILES): Cc1nc2cnc3ccoc3c2n1C1CCC(CC#N)OC1.O=S(=O)(O)c1ccccc1 (stereo not shown)
Crystal form after moisture absorption (XRPD before and after the DVS test) [1]: doesn't change
Weight gain by moisture absorption (DVS) ([1]; at 70% RH): 0.97%
Weight gain by moisture absorption (DVS) ([1]; at a humidity of 85% RH): 0.54%
Weight gain by moisture absorption (DVS) ([1]; from 0% RH to 95% RH, 25° C.): 4.6%

Structure (SMILES): Cc1nc2cnc3ccoc3c2n1C1CCC(CC#N)OC1.Cc1nc2cnc3ccoc3c2n1C1CCC(CC#N)OC1.O=C(O)C(O)C(O)C(=O)O (stereo not shown)
Stability study (purity) ([2]; 0 day): 99.22 Area %
Stability study (purity) ([2]; 40° C./75% RH, open, 1 week): 99.31 Area %
Stability study (purity) ([2]; 40° C./75% RH, open, 2 weeks): 99.36 Area %
Stability study (purity) ([2]; 60° C., sealed, 1 week): 99.34 Area %
Stability study (purity) ([2]; 60° C., sealed, 2 weeks): 99.36 Area %
Crystal form after moisture absorption (XRPD before and after the DVS test) [1]: doesn't change
Weight gain by moisture absorption (DVS) ([1]; at a humidity of 80% RH): 1.80%
Weight gain by moisture absorption (DVS) ([1]; from 0% RH to 95% RH, 25° C.): 6.85%
Crystal form after slurrying ([4]; Acetone): Crystal form O
Crystal form after slurrying ([4]; Ethanol): Crystal form O
Crystal form after slurrying ([4]; Ethyl acetate): Crystal form O
Crystal form after slurrying ([4]; Isopropanol): Crystal form O
Crystal form after slurrying ([4]; Methanol): Crystal form O
Crystal form after slurrying ([4]; Methyl tert-butyl ether): Crystal form O
Crystal form after slurrying ([4]; N-heptane): Crystal form O
Crystal form after slurrying ([4]; Tetrahydrofuran): Crystal form O
Crystal form after slurrying ([4]; Toluene): Crystal form O
Product crystal form ([5]; Anti-solvent Ethyl acetate): Crystal form O
Product crystal form ([5]; Anti-solvent Methyl tert-butyl ether): Crystal form O
Product crystal form ([5]; Anti-solvent N-heptane): Crystal form O
Product crystal form ([5]; Anti-solvent Toluene): Crystal form O
Crystal form of precipitated solid ([6]; Ethanol): Crystal form O
Crystal form of precipitated solid ([6]; Isopropanol): Crystal form O
Crystal form of precipitated solid ([6]; Methanol): Crystal form O
Crystal form of precipitated solid ([7]; Ethanol): Crystal form O
Crystal form of precipitated solid ([7]; Isopropanol): Crystal form O
Crystal form of precipitated solid ([8]; Acetone): Crystal form O
Crystal form of precipitated solid ([8]; Ethanol): Crystal form O
Crystal form of precipitated solid ([8]; Isopropanol): Crystal form O
Crystal form of precipitated solid ([8]; Methanol): Crystal form O
Crystal form of precipitated solid ([8]; Tetrahydrofuran): Crystal form O
Stability study: crystal form ([3]; 40° C./75% RH, open): Unchange
Stability study: crystal form ([3]; 60° C., sealed): Unchange
Appearance in solid state stability test [3]: didn't change

Stability study (purity) ([2]; 0 day): 99.80 Area %
Stability study (purity) ([2]; 40° C./75% RH, open, 1 week): 99.82 Area %
Stability study (purity) ([2]; 40° C./75% RH, open, 2 weeks): 99.82 Area %
Stability study (purity) ([2]; 60° C., sealed, 1 week): 99.81 Area %
Stability study (purity) ([2]; 60° C., sealed, 2 weeks): 99.83 Area %
Crystal form after moisture absorption (XRPD before and after the DVS test) [1]: the crystal form changes
Weight gain by moisture absorption (DVS) ([1]; from 0% RH to 95% RH, 25° C.): 13.86%
Stability study: crystal form ([3]; 40° C./75% RH, open): Change
Stability study: crystal form ([3]; 60° C., sealed): Change
Appearance in solid state stability test [3]: didn't change
solubility at 30 min (physchem; [11]): 2.59 mg/mL (≈ 8.74 mM)
solubility at 2 h (physchem; [11]): 1.86 mg/mL (≈ 6.28 mM)
solubility at 4 h (physchem; [11]): 1.81 mg/mL (≈ 6.11 mM)
solubility at 24 h (physchem; [11]): 1.56 mg/mL (≈ 5.26 mM)
solubility at 30 min (physchem; [12]): 2.91 mg/mL (≈ 9.82 mM)
solubility at 2 h (physchem; [12]): 2.2 mg/mL (≈ 7.42 mM)
solubility at 4 h (physchem; [12]): 2.61 mg/mL (≈ 8.81 mM)
solubility at 24 h (physchem; [12]): 3.29 mg/mL (≈ 11.1 mM)
solubility at 30 min (physchem; [13]): 16.4 mg/mL (≈ 55.3 mM)
solubility at 2 h (physchem; [13]): 17 mg/mL (≈ 57.2 mM)
solubility at 4 h (physchem; [13]): 15.2 mg/mL (≈ 51.2 mM)
solubility at 24 h (physchem; [13]): 16.4 mg/mL (≈ 55.4 mM)
solubility at 30 min (physchem; water): 1.35 mg/mL (≈ 4.56 mM)
solubility at 2 h (physchem; water): 1.73 mg/mL (≈ 5.84 mM)
solubility at 4 h (physchem; water): 1.49 mg/mL (≈ 5.03 mM)
solubility at 24 h (physchem; water): 1.43 mg/mL (≈ 4.83 mM)
Structure (SMILES): Cc1nc2cnc3ccoc3c2n1[C@H]1CC[C@H](CC#N)OC1

pIC50 (TYK2): > 8.00
Structure (SMILES): Cc1nc2cnc3ccoc3c2n1[C@H]1CC[C@H](CC#N)OC1 [compound of formula I, 2-[(2R,5S)-5-[2-methylfuro[3,2-b]imidazo[4,5-d]pyridin-1-yl]tetrahydropyran-2-yl] acetonitrile]
JAK1 inhibition (JAK1): potent and selective JAK1 inhibitor
Inhibition of IL-6-induced STAT3 phosphorylation [9]: selective inhibition
Inhibition of thrombopoietin-induced STAT3 phosphorylation [10]: does not show selective inhibition
